Measurements reported in patent US20260184675A1, “CHIRAL ISOMERIC SULFITE COMPOUND AND APPLICATION THEREOF” (Chengdu Hanova BioSciences Co., Ltd, priority 2024, published 2026).

Tests used:
Magnaporthe grisea = type: cell-based; conditions: 100 ppm; for Average antifungal rate (%) / Antifungal rate of Magnaporthe grisea (%), Replicate 1 / Antifungal rate of Magnaporthe grisea (%), Replicate 2 / Antifungal rate of Magnaporthe grisea (%), Replicate 3: 96-well plate; for Average antifungal rate (%): average of 3 replicates
[1] = system: eggs of Spodoptera litura; experiment: Effect on hatching of eggs of Spodoptera litura, egg piece soaking; type: in vivo; conditions: 500 ppm; for Hatching rate (%), Replicate 1 / Hatching rate (%), Replicate 2 / Hatching rate (%), Replicate 3 / Number of unhatched larvae 4 days after insecticide delivery, Replicate 1 / Number of unhatched larvae 4 days after insecticide delivery, Replicate 2 / Number of unhatched larvae 4 days after insecticide delivery, Replicate 3: Spodoptera litura eggs; for Hatching rate (%), Replicate 1 / Hatching rate (%), Replicate 2 / Hatching rate (%), Replicate 3: 4 days after delivery; for Number of unhatched larvae 4 days after insecticide delivery, Replicate 1 / Number of unhatched larvae 4 days after insecticide delivery, Replicate 2 / Number of unhatched larvae 4 days after insecticide delivery, Replicate 3: soaked 10 minutes
Outline: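 Egg pieces of about 60 eggs were soaked 10 min in test agent at 500 ppm, blotted, then held singly at 24±1 °C, 80±10% RH, 12:12 L:D. Hatched and unhatched eggs were counted on day 4 to give hatching rate and control effect; 3 replicates.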

eggs of Panonychus citri = experiment: Effect on hatching of eggs of Panonychus citri, leaf disc method; type: in vivo; conditions: 1 ppm; for Hatching rate (%), Replicate 1 / Hatching rate (%), Replicate 2 / Hatching rate (%), Replicate 3 / Number of hatched larvae 5 days after insecticide delivery, Replicate 1 / Number of hatched larvae 5 days after insecticide delivery, Replicate 2 / Number of hatched larvae 5 days after insecticide delivery, Replicate 3: Panonychus citri eggs; for Hatching rate (%), Replicate 1 / Hatching rate (%), Replicate 2 / Hatching rate (%), Replicate 3: 5 days after delivery; for Number of hatched larvae 5 days after insecticide delivery, Replicate 1 / Number of hatched larvae 5 days after insecticide delivery, Replicate 2 / Number of hatched larvae 5 days after insecticide delivery, Replicate 3: leaf disc
eggs of Aleyrodidae = experiment: Effect on hatching of eggs of Aleyrodidae, leaf disc method; type: in vivo; conditions: 10 ppm; for Hatching rate (%), Replicate 1 / Hatching rate (%), Replicate 2 / Hatching rate (%), Replicate 3 / Number of hatched larvae 5 days after insecticide delivery, Replicate 1 / Number of hatched larvae 5 days after insecticide delivery, Replicate 2 / Number of hatched larvae 5 days after insecticide delivery, Replicate 3: Aleyrodidae eggs; for Hatching rate (%), Replicate 1 / Hatching rate (%), Replicate 2 / Hatching rate (%), Replicate 3: 5 days after delivery; for Number of hatched larvae 5 days after insecticide delivery, Replicate 1 / Number of hatched larvae 5 days after insecticide delivery, Replicate 2 / Number of hatched larvae 5 days after insecticide delivery, Replicate 3: leaf disc
Outline: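 Leaf discs carrying Aleyrodidae eggs were first examined microscopically to record a baseline egg count. They were then dipped for 10 seconds in compound solution at 10 ppm or in clear water, taken out, and incubated with humidity maintained. Five days after delivery, the number of hatched larvae was recorded to assess hatching inhibition.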

[2] = system: eggs of Harmonia axyridis; experiment: Effect on hatching of eggs of Harmonia axyridis, egg card immersion; type: in vivo; conditions: 100 ppm; for Number of hatched larvae 4 days after insecticide delivery, Replicate 1 / Number of hatched larvae 4 days after insecticide delivery, Replicate 2 / Number of hatched larvae 4 days after insecticide delivery, Replicate 3: Harmonia axyridis egg cards, immersed 30 seconds; for Hatching rate (%), Replicate 1 / Hatching rate (%), Replicate 2 / Hatching rate (%), Replicate 3: Harmonia axyridis eggs, 4 days after delivery
Outline: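 Egg cards (~20 eggs each) dipped 30 s in 100 ppm insecticide, air dried and kept moist at 27° C; 5 cards per treatment, 3 replicates. Hatching assessed 4 days after treatment against pre-treatment egg counts, and control effect calculated by formula.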

In the case of `CC[C@@H](COS(=O)OCCF)Oc1ccc(Cl)cc1Cl` (stereo partly drawn) [19′-(S,S)], the “inhibitory rate against Magnaporthe grisea (in words)” value (“inhibitory rate” below) (Magnaporthe grisea) is reported as “strong inhibitory rate”, the “Average antifungal rate (%)” value (Magnaporthe grisea) is reported as 97.09% and the “Antifungal rate of Magnaporthe grisea (%), Replicate 1” value (shortened to “Antifungal rate … (%), Replicate 1”) (Magnaporthe grisea) is reported as 97.41%. The “Antifungal rate of Magnaporthe grisea (%), Replicate 2” value (“Antifungal rate … (%), Replicate 2” below) (Magnaporthe grisea) was 96.58%, the “Antifungal rate of Magnaporthe grisea (%), Replicate 3” value (from here on “Antifungal rate … (%), Replicate 3”) (Magnaporthe grisea) was 97.29% and the “inhibitory activity on the hatching of eggs of Spodoptera litura (in words)” value [1] was “good inhibitory activities”. For the same molecule, the “Hatching rate (%), Replicate 1” value ([1]; listed as 19′-(S, S)) was 17.54%, the “Hatching rate (%), Replicate 2” value ([1]; listed as 19′-(S, S)) was 19.70% and the “Hatching rate (%), Replicate 3” value ([1]; listed as 19′-(S, S)) was 18.87%. The “Number of unhatched larvae 4 days after insecticide delivery, Replicate 1” value (shortened to “Number of unhatched larvae 4 days … Replicate 1”) ([1]; listed as 19′-(S, S)) was 47, the “Number of unhatched larvae 4 days after insecticide delivery, Replicate 2” value (“Number of unhatched larvae 4 days … Replicate 2” for short) ([1]; listed as 19′-(S, S)) was 53 and the “Number of unhatched larvae 4 days after insecticide delivery, Replicate 3” value (“Number of unhatched larvae 4 days … Replicate 3” below) ([1]; listed as 19′-(S, S)) was 43. For the same molecule, the “inhibitory effect on the hatching of eggs of Panonychus citri (in words)” value (shortened to “inhibitory effect on the hatching”) (eggs of Panonychus citri) was “good inhibitory effects”, the “Hatching rate (%), Replicate 1” value (eggs of Panonychus citri; listed as 19′-(S, S)) was 0.00% and the “Hatching rate (%), Replicate 2” value (eggs of Panonychus citri; listed as 19′-(S, S)) was 0.00%. For the same molecule, the “Hatching rate (%), Replicate 3” value (eggs of Panonychus citri; listed as 19′-(S, S)) was 0.00%, the “Number of hatched larvae 5 days after insecticide delivery, Replicate 1” value (“Number of hatched larvae 5 days … Replicate 1” for short) (eggs of Panonychus citri; listed as 19′-(S, S)) was 0 and the “Number of hatched larvae 5 days after insecticide delivery, Replicate 2” value (“Number of hatched larvae 5 days … Replicate 2” for short) (eggs of Panonychus citri; listed as 19′-(S, S)) was 0. For the same molecule, the “Number of hatched larvae 5 days after insecticide delivery, Replicate 3” value (“Number of hatched larvae 5 days … Replicate 3” for short) (eggs of Panonychus citri; listed as 19′-(S, S)) was 0, the “inhibitory activity on the hatching of eggs of Aleyrodidae (in words)” value (“inhibitory activity … of Aleyrodidae (in words)” for short) (eggs of Aleyrodidae) was “strong inhibitory activities” and the “Hatching rate (%), Replicate 1” value (eggs of Aleyrodidae; listed as 19′-(S, S)) was 0.00%. The “Hatching rate (%), Replicate 2” value (eggs of Aleyrodidae; listed as 19′-(S, S)) was 0.00%, the “Hatching rate (%), Replicate 3” value (eggs of Aleyrodidae; listed as 19′-(S, S)) was 0.00% and the “Number of hatched larvae 5 days … Replicate 1” value (eggs of Aleyrodidae; listed as 19′-(S, S)) was 0. The “Number of hatched larvae 5 days … Replicate 2” value (eggs of Aleyrodidae; listed as 19′-(S, S)) was 0, the “Number of hatched larvae 5 days … Replicate 3” value (eggs of Aleyrodidae; listed as 19′-(S, S)) was 0 and the “inhibitory activity on the hatching of eggs of Harmonia axyridis (in words)” value [2] was “strong inhibitory activities”. For the same molecule, the “Number of hatched larvae 4 days after insecticide delivery, Replicate 1” value (“Number of hatched larvae 4 days … Replicate 1” below) ([2]; listed as 19′-(S, S)) was 0, the “Number of hatched larvae 4 days after insecticide delivery, Replicate 2” value (“Number of hatched larvae 4 days … Replicate 2” for short) ([2]; listed as 19′-(S, S)) was 0 and the “Number of hatched larvae 4 days after insecticide delivery, Replicate 3” value (from here on “Number of hatched larvae 4 days … Replicate 3”) ([2]; listed as 19′-(S, S)) was 0. The “Hatching rate (%), Replicate 1” value ([2]; listed as 19′-(S, S)) was 0.00%, the “Hatching rate (%), Replicate 2” value ([2]; listed as 19′-(S, S)) was 0.00% and the “Hatching rate (%), Replicate 3” value ([2]; listed as 19′-(S, S)) was 0.00%.

With `CC(COS(=O)OCCF)Oc1ccc(Cl)cc1Cl` (stereo not shown) [Compound 1] the “inhibitory rate” value (Magnaporthe grisea) was “strong inhibitory rate”, the “Average antifungal rate (%)” value (Magnaporthe grisea) was 95.42% and the “Antifungal rate … (%), Replicate 1” value (Magnaporthe grisea) was 96.34%. The “Antifungal rate … (%), Replicate 2” value (Magnaporthe grisea) was 95.11%, the “Antifungal rate … (%), Replicate 3” value (Magnaporthe grisea) was 94.82% and the “Hatching rate (%), Replicate 1” value [1] was 41.38%. For the same molecule, the “Hatching rate (%), Replicate 2” value [1] was 39.68%, the “Hatching rate (%), Replicate 3” value [1] was 40.42% and the “Number of unhatched larvae 4 days … Replicate 1” value [1] was 34. For the same molecule, the “Number of unhatched larvae 4 days … Replicate 2” value [1] was 38, the “Number of unhatched larvae 4 days … Replicate 3” value [1] was 37 and the “inhibitory effect on the hatching” value (eggs of Panonychus citri) was “good inhibitory effects”. For the same molecule, the “Hatching rate (%), Replicate 1” value (eggs of Panonychus citri) was 0.00%, the “Hatching rate (%), Replicate 2” value (eggs of Panonychus citri) was 0.00% and the “Hatching rate (%), Replicate 3” value (eggs of Panonychus citri) was 0.00%. For the same molecule, the “Number of hatched larvae 5 days … Replicate 1” value (eggs of Panonychus citri) was 0, the “Number of hatched larvae 5 days … Replicate 2” value (eggs of Panonychus citri) was 0 and the “Number of hatched larvae 5 days … Replicate 3” value (eggs of Panonychus citri) was 0. The “inhibitory activity … of Aleyrodidae (in words)” value (eggs of Aleyrodidae) was “strong inhibitory activities”, the “Hatching rate (%), Replicate 1” value (eggs of Aleyrodidae) was 0.00% and the “Hatching rate (%), Replicate 2” value (eggs of Aleyrodidae) was 1.50%. For the same molecule, the “Hatching rate (%), Replicate 3” value (eggs of Aleyrodidae) was 0.00%, the “Number of hatched larvae 5 days … Replicate 1” value (eggs of Aleyrodidae) was 0 and the “Number of hatched larvae 5 days … Replicate 2” value (eggs of Aleyrodidae) was 2. The “Number of hatched larvae 5 days … Replicate 3” value (eggs of Aleyrodidae) was 0, the “inhibitory activity on the hatching of eggs of Harmonia axyridis (in words)” value [2] was “strong inhibitory activities” and the “Number of hatched larvae 4 days … Replicate 1” value [2] was 7. For the same molecule, the “Number of hatched larvae 4 days … Replicate 2” value [2] was 6, the “Number of hatched larvae 4 days … Replicate 3” value [2] was 6 and the “Hatching rate (%), Replicate 1” value [2] was 6.25%. For the same molecule, the “Hatching rate (%), Replicate 2” value [2] was 6.38% and the “Hatching rate (%), Replicate 3” value [2] was 6.06%.

For `CC(COc1ccc(Cl)cc1Cl)OS(=O)OCCF` (stereo not shown) [Compound 1′], the “inhibitory rate” value (Magnaporthe grisea) was “strong inhibitory rate”, the “Average antifungal rate (%)” value (Magnaporthe grisea) was 94.28% and the “Antifungal rate … (%), Replicate 1” value (Magnaporthe grisea) was 95.78%. For the same molecule, the “Antifungal rate … (%), Replicate 2” value (Magnaporthe grisea) was 98.76%, the “Antifungal rate … (%), Replicate 3” value (Magnaporthe grisea) was 88.30% and the “Hatching rate (%), Replicate 1” value [1] was 40.68%. The “Hatching rate (%), Replicate 2” value [1] was 40.32%, the “Hatching rate (%), Replicate 3” value [1] was 39.06% and the “Number of unhatched larvae 4 days … Replicate 1” value [1] was 35. The “Number of unhatched larvae 4 days … Replicate 2” value [1] was 37, the “Number of unhatched larvae 4 days … Replicate 3” value [1] was 39 and the “inhibitory effect on the hatching” value (eggs of Panonychus citri) was “good inhibitory effects”. For the same molecule, the “Hatching rate (%), Replicate 1” value (eggs of Panonychus citri) was 0.93%, the “Hatching rate (%), Replicate 2” value (eggs of Panonychus citri) was 0.00% and the “Hatching rate (%), Replicate 3” value (eggs of Panonychus citri) was 0.00%. For the same molecule, the “Number of hatched larvae 5 days … Replicate 1” value (eggs of Panonychus citri) was 1, the “Number of hatched larvae 5 days … Replicate 2” value (eggs of Panonychus citri) was 0 and the “Number of hatched larvae 5 days … Replicate 3” value (eggs of Panonychus citri) was 0. The “inhibitory activity … of Aleyrodidae (in words)” value (eggs of Aleyrodidae) was “strong inhibitory activities”, the “Hatching rate (%), Replicate 1” value (eggs of Aleyrodidae) was 1.87% and the “Hatching rate (%), Replicate 2” value (eggs of Aleyrodidae) was 0.00%. The “Hatching rate (%), Replicate 3” value (eggs of Aleyrodidae) was 1.14%, the “Number of hatched larvae 5 days … Replicate 1” value (eggs of Aleyrodidae) was 2 and the “Number of hatched larvae 5 days … Replicate 2” value (eggs of Aleyrodidae) was 0. For the same molecule, the “Number of hatched larvae 5 days … Replicate 3” value (eggs of Aleyrodidae) was 1, the “inhibitory activity on the hatching of eggs of Harmonia axyridis (in words)” value [2] was “strong inhibitory activities” and the “Number of hatched larvae 4 days … Replicate 1” value [2] was 6. The “Number of hatched larvae 4 days … Replicate 2” value [2] was 4, the “Number of hatched larvae 4 days … Replicate 3” value [2] was 7 and the “Hatching rate (%), Replicate 1” value [2] was 5.88%. The “Hatching rate (%), Replicate 2” value [2] was 4.17% and the “Hatching rate (%), Replicate 3” value [2] was 6.60%.
